Laboratory results: PMC3261875 (PLoS ONE, 2012)

Target: T1, human heme oxygenase-2 (hHO-2) (Homo sapiens, UniProt P30519)
T1 construct: gene HMOX2; truncation derivative, 1–264 amino acids with an N-terminal His-tag
T1 sequence (P30519 1-264): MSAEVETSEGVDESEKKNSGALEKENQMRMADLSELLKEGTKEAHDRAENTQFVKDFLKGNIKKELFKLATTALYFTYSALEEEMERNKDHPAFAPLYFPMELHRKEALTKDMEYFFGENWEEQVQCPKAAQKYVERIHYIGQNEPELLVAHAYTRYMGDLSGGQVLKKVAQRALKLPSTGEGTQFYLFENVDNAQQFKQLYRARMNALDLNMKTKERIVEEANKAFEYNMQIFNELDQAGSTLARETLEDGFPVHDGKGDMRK
Experiment: spectral (Soret) binding and heme degradation assay on purified protein

O=C(CC(c1ccccc1)c1ccccc1)Cn1ccnc1 [QC-308, 1-(1H-imidazol-1-yl)-4,4-diphenyl-2-butanone]
spectral (Soret) binding and heme degradation assay on purified protein: the spectral changes upon addition of QC-308 were similar to those seen for hHO-1
